Source: PubChem BioAssay (NCI)
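Tested at 5 concentrations; 48 h exposure; 96-well plates; endpoints linearly interpolated, else capped at highest concentration. GI50: concentration for 50% inhibition of growth. TGI: total growth inhibition.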

What was measured:
Assay in all cases: NCI anticancer screen, dose series, 48 h
NCI-H226 lung = tested on: NCI-H226 lung
MALME-3M melanoma = tested on: MALME-3M melanoma
MCF7 breast = tested on: MCF7 breast
SK-MEL-2 melanoma = tested on: SK-MEL-2 melanoma
DU-145 prostate = tested on: DU-145 prostate
SK-MEL-28 melanoma = tested on: SK-MEL-28 melanoma
OVCAR-3 ovarian = tested on: OVCAR-3 ovarian
HCT-116 colon = tested on: HCT-116 colon
HT29 colon = tested on: HT29 colon
RPMI-8226 leukemia = tested on: RPMI-8226 leukemia
UACC-62 melanoma = tested on: UACC-62 melanoma
K-562 leukemia = tested on: K-562 leukemia
SK-OV-3 ovarian = tested on: SK-OV-3 ovarian
HOP-62 NSCLC = tested on: HOP-62 NSCLC
PC-3 prostate = tested on: PC-3 prostate
CAKI-1 renal = tested on: CAKI-1 renal
SR leukemia = tested on: SR leukemia
SK-MEL-5 melanoma = tested on: SK-MEL-5 melanoma
OVCAR-4 ovarian = tested on: OVCAR-4 ovarian
SF-268 CNS = tested on: SF-268 CNS
NCI/ADR-RES ovarian = tested on: NCI/ADR-RES ovarian
HL-60(TB) leukemia = tested on: HL-60(TB) leukemia
HCT-15 colon = tested on: HCT-15 colon
COLO 205 colon = tested on: COLO 205 colon
SNB-75 CNS = tested on: SNB-75 CNS
A549 NSCLC = tested on: A549 NSCLC
UACC-257 melanoma = tested on: UACC-257 melanoma
MDA-MB-231 breast = tested on: MDA-MB-231 breast
SW-620 colon = tested on: SW-620 colon
SNB-19 CNS = tested on: SNB-19 CNS
MDA-MB-435 = tested on: MDA-MB-435
786-0 renal = tested on: 786-0 renal
U251 CNS = tested on: U251 CNS
OVCAR-8 ovarian = tested on: OVCAR-8 ovarian
NCI-H23 lung = tested on: NCI-H23 lung
HOP-92 NSCLC = tested on: HOP-92 NSCLC
M14 melanoma = tested on: M14 melanoma
MOLT-4 leukemia = tested on: MOLT-4 leukemia
A498 renal = tested on: A498 renal
HS 578T breast = tested on: HS 578T breast
ACHN renal = tested on: ACHN renal
UO-31 renal = tested on: UO-31 renal
RXF 393 renal = tested on: RXF 393 renal
TK-10 renal = tested on: TK-10 renal
KM12 colon = tested on: KM12 colon
SF-539 CNS = tested on: SF-539 CNS
OVCAR-5 ovarian = tested on: OVCAR-5 ovarian
IGROV1 ovarian = tested on: IGROV1 ovarian
NCI-H460 lung = tested on: NCI-H460 lung
BT-549 breast = tested on: BT-549 breast
CCRF-CEM leukemia = tested on: CCRF-CEM leukemia
SF-295 CNS = tested on: SF-295 CNS
NCI-H522 lung = tested on: NCI-H522 lung
LOX IMVI melanoma = tested on: LOX IMVI melanoma
HCC-2998 colon = tested on: HCC-2998 colon
T-47D breast = tested on: T-47D breast

## COc1cccc2c1O/C(=C\c1ncc([N+](=O)[O-])n1C)C2=O
NCI-H226 lung
  GI50: 1.47 µM
  TGI: 4.81 µM
MALME-3M melanoma
  GI50: 0.224 µM
  TGI: 0.563 µM
MCF7 breast
  GI50: 0.467 µM
  TGI: 5.04 µM
SK-MEL-2 melanoma
  GI50: 0.242 µM
  TGI: 0.607 µM
DU-145 prostate
  GI50: 0.266 µM
  TGI: 0.809 µM
SK-MEL-28 melanoma
  GI50: 0.239 µM
  TGI: 0.607 µM
OVCAR-3 ovarian
  GI50: 0.236 µM
  TGI: 0.632 µM
HCT-116 colon
  GI50: 0.0825 µM
  TGI: 0.691 µM
HT29 colon
  GI50: 0.154 µM
  TGI: 0.599 µM
RPMI-8226 leukemia
  GI50: 0.949 µM
  TGI: 4.11 µM
UACC-62 melanoma
  GI50: 0.569 µM
  TGI: 1.67 µM
K-562 leukemia
  GI50: 0.422 µM
  TGI: 6.22 µM
SK-OV-3 ovarian
  GI50: 0.911 µM
  TGI: 4.21 µM
HOP-62 NSCLC
  GI50: 0.716 µM
  TGI: 2.25 µM
PC-3 prostate
  GI50: 0.662 µM
CAKI-1 renal
  GI50: 0.2 µM
  TGI: 0.579 µM
SR leukemia
  GI50: < 0.0165 µM
  TGI: 0.165 µM
SK-MEL-5 melanoma
  GI50: 0.186 µM
  TGI: 0.502 µM
OVCAR-4 ovarian
  GI50: 1.92 µM
  TGI: 6.23 µM
SF-268 CNS
  GI50: 0.221 µM
  TGI: 0.816 µM
NCI/ADR-RES ovarian
  GI50: 0.277 µM
  TGI: 2.9 µM
HL-60(TB) leukemia
  GI50: 0.234 µM
  TGI: 1.35 µM
HCT-15 colon
  GI50: 0.128 µM
  TGI: 0.404 µM
COLO 205 colon
  GI50: 0.254 µM
  TGI: 1.1 µM
SNB-75 CNS
  GI50: 1.39 µM
  TGI: 3.97 µM
A549 NSCLC
  GI50: 0.509 µM
  TGI: 3.45 µM
UACC-257 melanoma
  GI50: 0.531 µM
  TGI: 4.99 µM
MDA-MB-231 breast
  GI50: 0.31 µM
  TGI: 1.57 µM
SW-620 colon
  GI50: 0.0747 µM
  TGI: 1.7 µM
SNB-19 CNS
  GI50: 1.3 µM
  TGI: 5.75 µM
MDA-MB-435
  GI50: 0.133 µM
  TGI: 0.29 µM
786-0 renal
  GI50: 0.375 µM
  TGI: 3.89 µM
U251 CNS
  GI50: 0.745 µM
  TGI: 3.19 µM
OVCAR-8 ovarian
  GI50: 0.167 µM
NCI-H23 lung
  GI50: 0.27 µM
  TGI: 1.31 µM
HOP-92 NSCLC
  GI50: 0.343 µM
  TGI: 1.68 µM
M14 melanoma
  GI50: 0.218 µM
  TGI: 0.719 µM
MOLT-4 leukemia
  GI50: 0.0689 µM
  TGI: 1.36 µM
A498 renal
  GI50: 1.39 µM
  TGI: 3.42 µM
HS 578T breast
  GI50: 1.04 µM
  TGI: > 21 µM
ACHN renal
  GI50: 0.0826 µM
  TGI: 0.332 µM
UO-31 renal
  GI50: 0.173 µM
  TGI: 0.622 µM
RXF 393 renal
  GI50: 0.229 µM
  TGI: 0.648 µM
TK-10 renal
  GI50: 0.87 µM
KM12 colon
  GI50: 0.348 µM
  TGI: 1.55 µM
SF-539 CNS
  GI50: 1.32 µM
  TGI: 3.51 µM
OVCAR-5 ovarian
  GI50: 1.7 µM
  TGI: 5.82 µM
IGROV1 ovarian
  GI50: 0.303 µM
  TGI: 2.46 µM
NCI-H460 lung
  GI50: 0.203 µM
  TGI: 0.603 µM
BT-549 breast
  GI50: 0.413 µM
  TGI: 2.65 µM
CCRF-CEM leukemia
  GI50: 0.0537 µM
  TGI: 0.384 µM
SF-295 CNS
  GI50: 1.27 µM
  TGI: 4.49 µM
NCI-H522 lung
  GI50: 0.187 µM
  TGI: 0.474 µM
LOX IMVI melanoma
  GI50: 0.116 µM
  TGI: 0.414 µM
HCC-2998 colon
  GI50: 1.86 µM
  TGI: 7.57 µM
T-47D breast
  GI50: 8.25 µM
  TGI: 52.9 µM
